Results on twelve compounds are retold here after ChEMBL document CHEMBL1201862, “PubChem BioAssay data set” (2004).

Among the test systems are SN12C; Malme-3M; A498; SK-OV-3; DMS-114; SK-MEL-5; CCRF-CEM; HL-60; HCT-15; A549; RXF 393; SK-MEL-28; UO-31; SF-268; COLO 205; NCI-H23; NCI-H522; SR; NCI/ADR-RES; MCF7.
What all share (test): growth of human tumour cells (NCI), 48 h

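Method: 48-hour compound exposure of cells in 96-well plates, five concentrations, linear interpolation of endpoints. Abbreviation: GI50, concentration required for 50% inhibition of growth.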 Calls of active or inactive are those of the source. Cut-off read from the data, not from the text of the source: active = GI50 up to about 1.1 µM and inactive = higher.

Consider `CCOC(=O)N[C@@H]1C(CC(=O)OC)O[C@H]2OC(C)(C)O[C@H]21` (stereo partly specified), for which the GI50 in the experiment with SN12C, with Malme-3M, in the experiment with A498, with SK-OV-3, with DMS-114 and in the experiment on SK-MEL-5 was > 100 µM (inactive) each time. Also, the GI50 in the experiment on CCRF-CEM is > 100 µM (inactive); with HL-60, > 100 µM (inactive); in the experiment with HCT-15, over 100 µM; in the experiment with A549, > 100 µM (inactive); in the experiment on RXF 393 it was > 100 µM (inactive); in the experiment with SK-MEL-28, > 100 µM (inactive). Besides, the GI50 with UO-31, in the experiment with SF-268, with COLO 205 and in the experiment on NCI-H23 was > 100 µM (inactive) in each case.
For the compound `Cc1cc2c(=O)c3ccc(Cl)cc3[nH]c2c(C(N)=O)c1C`, the GI50 in the experiment with SN12C, with Malme-3M, in the experiment on A498, in the experiment on SK-OV-3, with NCI-H522 and in the experiment with DMS-114 was > 100 µM (inactive) each time. For the same compound, the GI50 is > 100 µM (inactive) in the experiment on SK-MEL-5; > 100 µM (inactive) with CCRF-CEM; > 100 µM (inactive) in the experiment on HL-60; over 100 µM in the experiment with HCT-15; > 100 µM (inactive) in the experiment with A549; > 100 µM (inactive) in the experiment with SK-MEL-28. Besides, the GI50 in the experiment with UO-31, with SF-268, with COLO 205 and in the experiment with NCI-H23 was > 100 µM (inactive) each time.
Consider `CCCN1CN(C(C(=O)N[C@@H]2C(=O)N3C2SC(C)(C)C3C(=O)O)c2ccccc2)CSC1=S` (stereo partly specified), for which the GI50 in the experiment on SN12C was > 100 µM (inactive); in the experiment with Malme-3M it was > 100 µM (inactive); in the experiment on A498 it was > 100 µM (inactive); with SK-OV-3, > 100 µM (inactive); in the experiment with NCI-H522, 23.1 µM (inactive); with DMS-114 it was 54 µM (inactive). Further, the GI50 with SK-MEL-5 is > 100 µM (inactive); with CCRF-CEM, 95.9 µM (inactive); in the experiment on HL-60, 48 µM (inactive); in the experiment with HCT-15, 80.5 µM; in the experiment with A549, > 100 µM (inactive); in the experiment with SK-MEL-28 it was > 100 µM (inactive). In addition, the GI50 in the experiment on UO-31 was > 100 µM (inactive); with SF-268 it was > 100 µM (inactive); in the experiment with COLO 205, 23.6 µM (inactive); in the experiment with NCI-H23, > 100 µM (inactive).
In the case of `Cc1c(/C=N/NC(=O)c2cc(Br)cc(Br)c2O)c(=O)n(-c2ccccc2)n1C`, the GI50 is 69.7 µM (inactive) in the experiment with SN12C; 67.3 µM (inactive) in the experiment on Malme-3M; > 100 µM (inactive) in the experiment on A498; > 100 µM (inactive) with SK-OV-3; 33 µM (inactive) in the experiment on NCI-H522; 38.5 µM (inactive) with DMS-114. In addition, the GI50 in the experiment with SK-MEL-5 was 51.6 µM (inactive); with CCRF-CEM it was 23.3 µM (inactive); in the experiment with HL-60, 2.49 µM (inactive); with HCT-15 it was 39.1 µM; in the experiment on A549 it was > 100 µM (inactive); in the experiment with SK-MEL-28 it was 20.8 µM (inactive). Moreover, the GI50 with UO-31 is 70.5 µM (inactive); in the experiment with SF-268, 83.8 µM (inactive); in the experiment with COLO 205, 61.2 µM (inactive); in the experiment on NCI-H23 it was 77.3 µM (inactive).
Consider `O=c1cc(-c2ccccc2)[nH]c2ccc(N3CCCC3)cc12`, for which the GI50 in the experiment with SN12C was 0.0451 µM (active); in the experiment on SR it was 0.0184 µM (active); in the experiment on Malme-3M it was > 100 µM (inactive); with NCI/ADR-RES, 0.0159 µM (active); in the experiment with A498, 0.0272 µM (active); in the experiment with MCF7, 4.58 µM (inactive). Moreover, the GI50 in the experiment with SK-OV-3 is 0.0466 µM (active); in the experiment on NCI-H522, < 0.01 µM (active); in the experiment with SK-MEL-5 it was 0.0366 µM (active); in the experiment on CCRF-CEM it was < 0.0149 µM (active); in the experiment with HL-60 it was < 0.01 µM (active); with HCT-15, 0.0743 µM. The GI50 was 0.0555 µM (active) in the experiment with A549; 0.0196 µM (active) with RXF 393; 0.0533 µM (active) in the experiment on SK-MEL-28; > 100 µM (inactive) with UO-31; 0.173 µM (active) in the experiment with SF-268; 0.0196 µM (active) with COLO 205. In addition, the GI50 with NCI-H23 was 0.299 µM (active).
Take `COc1nc2nccc-2c2occn12`: the GI50 with SN12C, in the experiment on Malme-3M, in the experiment with A498, in the experiment with SK-OV-3, in the experiment with NCI-H522 and with DMS-114 was > 100 µM (inactive) each time. For the same compound, the GI50 was > 100 µM (inactive) in the experiment on SK-MEL-5; over 100 µM in the experiment on HCT-15; > 100 µM (inactive) in the experiment with A549; > 100 µM (inactive) in the experiment with RXF 393; > 100 µM (inactive) in the experiment on SK-MEL-28; > 100 µM (inactive) in the experiment with UO-31. The GI50 in the experiment with SF-268, in the experiment on COLO 205 and in the experiment on NCI-H23 was > 100 µM (inactive) each time.
Take `NC(CCc1ncc(-c2ccccc2)s1)C(=O)O` (stereo unspecified): the GI50 in the experiment with SN12C, in the experiment on Malme-3M, in the experiment on A498, in the experiment on SK-OV-3, with NCI-H522 and in the experiment with DMS-114 was > 100 µM (inactive) each time. In addition, the GI50 with SK-MEL-5 is > 100 µM (inactive); in the experiment with CCRF-CEM, > 100 µM (inactive); in the experiment on HL-60, > 100 µM (inactive); with HCT-15 it was over 100 µM; with A549 it was > 100 µM (inactive); with RXF 393 it was > 100 µM (inactive). The GI50 in the experiment on SK-MEL-28 is > 100 µM (inactive); with UO-31, 45.3 µM (inactive); with COLO 205, > 100 µM (inactive); in the experiment with NCI-H23, > 100 µM (inactive).
In the case of `NC(=O)C(=Cc1ccc(CP(=O)(O)O)cc1)C(N)=O`, the GI50 with SN12C, in the experiment on Malme-3M, with A498, in the experiment on SK-OV-3, in the experiment with NCI-H522 and with DMS-114 was > 100 µM (inactive) in each case. The GI50 with SK-MEL-5 was > 100 µM (inactive); with HCT-15, over 100 µM; in the experiment on A549 it was > 100 µM (inactive); with RXF 393, > 100 µM (inactive); in the experiment with SK-MEL-28 it was > 100 µM (inactive); in the experiment with UO-31 it was > 100 µM (inactive). The GI50 with COLO 205 and in the experiment on NCI-H23 was > 100 µM (inactive) in each case.
On to `CCCCNC1CCC2(SCCS2)c2[nH]c3ccccc3c21` (stereo unspecified), for which the GI50 is 37.7 µM (inactive) in the experiment with SN12C; 3.76 µM (inactive) with SR; 16.5 µM (inactive) with Malme-3M; 21.6 µM (inactive) in the experiment on NCI/ADR-RES; 20.8 µM (inactive) in the experiment on A498; 3.11 µM (inactive) in the experiment with MCF7. For the same compound, the GI50 in the experiment on SK-OV-3 is 49.8 µM (inactive); in the experiment on NCI-H522, 8.61 µM (inactive); with SK-MEL-5, 5.14 µM (inactive); in the experiment on CCRF-CEM it was 3.2 µM (inactive); with HL-60, 3.16 µM (inactive); in the experiment with HCT-15, 4.78 µM. Moreover, the GI50 is 56.9 µM (inactive) in the experiment on A549; 21 µM (inactive) in the experiment with RXF 393; 34.3 µM (inactive) in the experiment with SK-MEL-28; 20.4 µM (inactive) in the experiment with UO-31; 19.9 µM (inactive) in the experiment on SF-268; 17.5 µM (inactive) with COLO 205. Moreover, in the experiment on NCI-H23, the GI50 was 32 µM (inactive).
As to `Cc1c(C#N)c2nnn(-c3ccc([N+](=O)[O-])cc3)c(=O)n2c1-c1ccccc1`, the GI50 in the experiment with SN12C is 11.5 µM (inactive); with SR, 4.62 µM (inactive); with Malme-3M, 14.7 µM (inactive); with NCI/ADR-RES, 4.86 µM (inactive); with A498, 5.64 µM (inactive); in the experiment with MCF7, 6.22 µM (inactive). The GI50 in the experiment on SK-OV-3 is 24.3 µM (inactive); in the experiment on NCI-H522, 3.77 µM (inactive); in the experiment on SK-MEL-5, 12.6 µM (inactive); with CCRF-CEM it was 5.98 µM (inactive); in the experiment on HL-60, 14.7 µM (inactive); with HCT-15, 6.15 µM. Moreover, the GI50 in the experiment with A549 was 10.1 µM (inactive); with RXF 393 it was 16.5 µM (inactive); in the experiment on SK-MEL-28, 19.2 µM (inactive); in the experiment with UO-31 it was 11.2 µM (inactive); with SF-268, 14.7 µM (inactive); in the experiment with COLO 205 it was 10.4 µM (inactive). The GI50 in the experiment on NCI-H23 was 3.9 µM (inactive).
In the case of `COC(=O)c1ccc2n1C1CC3CC(CC2C3)C1`, the GI50 in the experiment on SN12C is > 100 µM (inactive); in the experiment with SR, 46.3 µM (inactive); in the experiment on Malme-3M, > 100 µM (inactive); with NCI/ADR-RES, > 100 µM (inactive); with A498, > 100 µM (inactive); with MCF7, > 100 µM (inactive). The GI50 with SK-OV-3 was > 100 µM (inactive); with NCI-H522 it was > 100 µM (inactive); in the experiment with SK-MEL-5 it was 30.9 µM (inactive); in the experiment with CCRF-CEM it was > 100 µM (inactive); with HL-60, 15.3 µM (inactive); in the experiment on HCT-15 it was over 100 µM. Besides, the GI50 is > 100 µM (inactive) in the experiment on A549; 21.5 µM (inactive) in the experiment with RXF 393; > 100 µM (inactive) in the experiment on SK-MEL-28; > 100 µM (inactive) with UO-31; > 100 µM (inactive) in the experiment on SF-268; > 100 µM (inactive) with COLO 205. In addition, in the experiment on NCI-H23, the GI50 was 90.8 µM (inactive).
With `N=c1oc2c(O)c(O)ccc2cc1C(N)=O`, the GI50 was > 100 µM (inactive) in the experiment on SN12C; 84.3 µM (inactive) with Malme-3M; > 100 µM (inactive) in the experiment on A498; > 100 µM (inactive) in the experiment with SK-OV-3; 58.6 µM (inactive) with NCI-H522; 35.4 µM (inactive) with DMS-114. Besides, the GI50 in the experiment with CCRF-CEM is 21.6 µM (inactive); in the experiment on HL-60, > 10 µM (inactive); in the experiment on HCT-15, over 100 µM; in the experiment on A549, > 100 µM (inactive); in the experiment with RXF 393, 50.2 µM (inactive); with SK-MEL-28 it was 85.7 µM (inactive). In addition, the GI50 with UO-31 was > 100 µM (inactive); in the experiment with SF-268 it was 96.4 µM (inactive); with COLO 205, 41.6 µM (inactive); in the experiment with NCI-H23, > 100 µM (inactive).
